Test results published in patent US11051538B2, “Plated flavor powders” (FIRMENICH SA, priority 2013, dated 2021).

Test: Transfer of volatiles via headspace from MCT flavor composition to PG plated onto MCC, cyclohexane extraction, GC/MS
Format: physicochemical
Details: for (conc in PG/conc in initial oil)*100: affinity for propylene glycol versus MCT oil or air; for (conc in PG/conc in initial oil)*100 / Avg conc in the PG: 6 days room temperature; for Avg conc in the PG / Avg conc in powder: powder 20% PG on 80% MCC; for Avg conc in powder: 6 days room temperature in closed container with MCT flavor composition, average of 2 extractions
Protocol: A flavor composition formulated based on a medium chain triglyceride oil (MCT, solvent A) was filled into a open beaker, and was then placed inside a closed glass container containing a powder consisting of 20% propylene glycol (PG, solvent B) plated onto 80% of microcrystalline cellulose (MCC; purchased from Sigma Aldrich). Then the system was stored in the lab at room temperature. After 6 days, a small sample of powder was removed, an extraction experiment was performed and the extract was analyzed by GC/MS. Extraction solvent: cyclohexane Internal standard: Methyloctanoate (a 6.67 mg/ml solution was prepared by dissolution in cyclohexane) 2 extractions were performed to check the reproducibility.

| (conc in PG/conc in initial oil)*100 | Avg conc in the PG [ppm] | Avg conc in powder [ppm] | Compound |
| --- | --- | --- | --- |
| 1.9 | 467.4 | 117 | Dienal C10 |
| 9.1 | 1091.5 | 273 | CC(C)CC=O [isovalerianic aldehyde] |
| 0.3 | 37.8 | 9 | Decenal |
| 3.9 | 156.9 | 39 | CC(=O)C(C)O (stereo not drawn) [acetylmethylcarbinol] |
| 12.7 | 25.4 | 6 | CCc1ncc(C)nc1C [2-ethyl-3,5-dimethylpirazine] |
| 2.8 | 113.5 | 28 | CSCCC=O [3-(methylthio)propanal] |
| 6.7 | 1615.4 | 404 | CCC(C)C=O (stereo not drawn) [2-methyl butanal] |
| 0.5 | 40.4 | 10 | Dienal C11 |
| 39.9 | 799.0 | 200 | CCc1nccnc1C [2-ethyl-3-methylpyrazine] |
